Data on 18 molecules can be found in EP4741392A1, “1H-PYRAZOLO[4,3-C]PYRIDINE COMPOUND, AND COMPOSITION THEREOF AND USE THEREOF” (Shenzhen TargetRx Co., Ltd., priority 2023, dated 2025).

By IC50 is commonly meant the point on the concentration scale where inhibition reaches its midpoint.

Common to all, as to test: Kinase activity inhibition assay (HTRF TK Kit), selectivity
Format in all cases: biochemical

Test [1] concerns the target T1, EGFR (Homo sapiens, UniProt P00533).
T1 construct: purchased Carna 08-115
A digest of the protocol:
(§1)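 Cmpd + substrate/ATP + kinase, assembled on ice, shaken 30 s, RT reaction; detection mix (SA-XL665 + TK Ab-cryptate) 1 h RT; 665/620 ratio. Controls: no-kinase blank, kinase + 1% DMSO. IC50 via 4-parameter logistic fit of % inhibition vs log[cmpd].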

Test [2] addresses T2, ITK (Homo sapiens, UniProt Q08881).
T2 construct: purchased Carna 08-181
T2 sequence (Q08881 1-620): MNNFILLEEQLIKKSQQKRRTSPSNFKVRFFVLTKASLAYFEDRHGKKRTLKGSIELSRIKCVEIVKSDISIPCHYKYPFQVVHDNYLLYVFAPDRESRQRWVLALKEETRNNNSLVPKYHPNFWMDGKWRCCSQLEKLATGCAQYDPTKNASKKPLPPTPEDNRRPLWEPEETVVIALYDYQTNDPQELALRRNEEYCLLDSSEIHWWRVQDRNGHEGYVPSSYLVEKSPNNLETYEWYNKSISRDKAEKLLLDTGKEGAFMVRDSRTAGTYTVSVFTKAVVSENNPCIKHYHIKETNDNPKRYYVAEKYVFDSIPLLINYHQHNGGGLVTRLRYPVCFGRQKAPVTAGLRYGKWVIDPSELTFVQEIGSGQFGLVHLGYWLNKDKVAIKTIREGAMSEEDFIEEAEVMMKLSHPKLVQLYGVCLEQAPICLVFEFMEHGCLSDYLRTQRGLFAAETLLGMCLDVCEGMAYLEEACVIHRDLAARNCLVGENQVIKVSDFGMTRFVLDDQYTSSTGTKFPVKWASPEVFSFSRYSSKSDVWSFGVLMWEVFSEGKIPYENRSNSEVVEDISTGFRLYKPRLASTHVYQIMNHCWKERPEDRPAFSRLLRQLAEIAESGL
A digest of the protocol:
as §1

Test [3] addresses T3, TEC (Homo sapiens, UniProt P42680).
T3 construct: purchased Carna 08-182
T3 sequence (P42680 1-631): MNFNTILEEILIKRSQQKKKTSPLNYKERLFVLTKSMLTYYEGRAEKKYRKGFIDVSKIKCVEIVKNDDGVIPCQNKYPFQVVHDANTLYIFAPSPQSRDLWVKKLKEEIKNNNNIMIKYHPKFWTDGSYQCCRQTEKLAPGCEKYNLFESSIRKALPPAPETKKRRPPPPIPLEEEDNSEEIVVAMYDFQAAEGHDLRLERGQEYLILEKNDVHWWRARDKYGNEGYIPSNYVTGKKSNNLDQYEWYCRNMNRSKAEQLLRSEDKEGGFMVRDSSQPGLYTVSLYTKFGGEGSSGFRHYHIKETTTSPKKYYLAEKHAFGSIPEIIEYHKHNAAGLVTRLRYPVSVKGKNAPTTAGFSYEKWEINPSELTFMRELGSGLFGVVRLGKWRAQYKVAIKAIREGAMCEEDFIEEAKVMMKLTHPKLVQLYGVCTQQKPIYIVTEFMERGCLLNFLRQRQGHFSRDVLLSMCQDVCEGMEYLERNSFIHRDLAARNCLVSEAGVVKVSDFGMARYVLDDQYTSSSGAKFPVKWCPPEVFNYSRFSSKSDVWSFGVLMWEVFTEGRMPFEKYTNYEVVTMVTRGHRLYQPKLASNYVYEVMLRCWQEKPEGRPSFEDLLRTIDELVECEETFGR
In outline:
as §1

T1 sequence (P00533 669-1210 limits assumed): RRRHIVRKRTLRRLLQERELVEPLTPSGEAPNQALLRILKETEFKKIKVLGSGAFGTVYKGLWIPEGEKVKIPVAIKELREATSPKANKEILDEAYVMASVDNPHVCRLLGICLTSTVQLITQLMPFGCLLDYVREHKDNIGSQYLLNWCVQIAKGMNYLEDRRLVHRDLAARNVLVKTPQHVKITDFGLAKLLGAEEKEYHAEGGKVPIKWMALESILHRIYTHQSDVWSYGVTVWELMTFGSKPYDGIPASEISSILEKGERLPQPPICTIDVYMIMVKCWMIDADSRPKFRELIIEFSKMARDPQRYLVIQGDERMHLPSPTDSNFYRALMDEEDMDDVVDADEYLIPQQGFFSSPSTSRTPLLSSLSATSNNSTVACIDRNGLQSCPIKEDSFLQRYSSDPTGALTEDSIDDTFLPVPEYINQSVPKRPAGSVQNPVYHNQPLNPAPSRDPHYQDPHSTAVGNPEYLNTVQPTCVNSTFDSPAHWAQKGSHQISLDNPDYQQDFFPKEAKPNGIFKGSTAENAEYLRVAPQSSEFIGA

In the case of `COc1ccc(F)cc1C(=O)NCc1ccc(-c2ncc(-c3cn4ccnc4cn3)c3[nH]nc(N)c23)cc1` [Example 50, N-(4-(3-amino-7-(imidazo[1,2-a]pyrazin-6-yl)-1H-pyrazolo[4,3-c]pyridin-4-yl)benzyl)-5-fluoro-2-methoxybenzamide], the IC50 in test [1] is 50 to 500 nM; in test [2], more than 500 nM; in test [3], 5 to 50 nM.
The corresponding values for `COc1ccc(F)cc1C(=O)NCc1ccc(-c2ncc(-c3ccc4nccn4n3)c3[nH]nc(N)c23)cc1` [Example 51, N-(4-(3-amino-7-(imidazo[1,2-b]pyridazin-6-yl)-1H-pyrazolo[4,3-c]pyridin-4-yl)benzyl)-5-fluoro-2-methoxybenzamide] are 50 to 500 nM, more than 500 nM and 5 to 50 nM.
The corresponding values for `COc1ccc(F)cc1C(=O)NCc1ccc(-c2ncc(-c3ccc(C(=O)N4CCOCC4)cn3)c3[nH]nc(N)c23)cc1` [Example 52, N-(4-(3-amino-7-(5-(morpholine-4-carbonyl)pyridin-2-yl)-1H-pyrazolo[4,3-c]pyridin-4-yl)benzyl)-5-fluoro-2-methoxybenzamide] are 50 to 500 nM, 50 to 500 nM and 5 to 50 nM.
The corresponding values for `COc1ccc(F)cc1C(=O)NCc1ccc(-c2ncc(-c3ccc(C(=O)N4C[C@H](C)O[C@@H](C)C4)cn3)c3[nH]nc(N)c23)cc1` [Example 53, N-(4-(3-amino-7-(5-((2S,6S)-2,6-dimethylmorpholine-4-carbonyl)pyridin-2-yl)-1H-pyrazolo[4,3-c]pyridin-4-yl)benzyl)-5-fluoro-2-methoxybenzamide] are 50 to 500 nM, 50 to 500 nM and 5 to 50 nM.
Regarding `COc1ccc(F)cc1C(=O)NCc1ccc(-c2ncc(-c3ccc(C(=O)N4C[C@@H](C)O[C@H](C)C4)cn3)c3[nH]nc(N)c23)cc1` [Example 54, N-(4-(3-amino-7-(5-((2R,6R)-2,6-dimethylmoroholine-4-carbonyl)pyridin-2-yl)-1H-pyrazolo[4,3-c]pyridin-4-yl)benzyl)-5-fluoro-2-methoxybenzamide], the figures for the IC50 in test [1], in test [2] and in test [3] were 50 to 500 nM, 50 to 500 nM and 5 to 50 nM, respectively.
Turning to `COc1ccc(F)cc1C(=O)NCc1ccc(-c2ncc(-c3ccc(P(C)(C)=O)cn3)c3[nH]nc(N)c23)cc1` [Example 56, N-(4-(3-amino-7-(5-(dimethylphosphoryl)pyridin-2-yl)-1H-pyrazolo[4,3-c]pyridin-4-yl)benzyl)-5-fluoro-2-methoxybenzamide], the IC50 in test [1] lay in the range of 50 to 500 nM; in test [2] it was 50 to 500 nM; in test [3] it was 5 to 50 nM.
For the molecule `COc1ccc(F)cc1C(=O)NCc1ccc(-c2ncc(-c3nc4cnccn4n3)c3[nH]nc(N)c23)cc1` [Example 57, N-(4-(7-([1,2,4]triazolo[1,5-a]pyrazin-2-yl)-3-amino-1H-pyrazolo[4,3-c]pyridin-4-yl)benzyl)-5-fluoro-2-methoxybenzamide], the values for the concentration for half-maximal inhibition (IC50) in test [1], in test [2] and in test [3] were 50 to 500 nM, more than 500 nM and 50 to 500 nM, respectively.
For the molecule `COc1ccc(F)cc1C(=O)NCc1ccc(-c2ncc(-c3nc4ccccn4n3)c3[nH]nc(N)c23)cc1` [Example 58, N-(4-(7-([1,2,4]triazolo[1,5-a]pyridin-2-yl)-3-amino-1H-pyrazolo[4,3-c]pyridin-4-yl)benzyl)-5-fluoro-2-methoxybenzamide], the IC50 was 50 to 500 nM in test [1], more than 500 nM in test [2] and 5 to 50 nM in test [3].
The corresponding values for `COCCOc1ccc(-c2cnc(-c3ccc(CNC(=O)c4cc(F)ccc4OC)cc3)c3c(N)n[nH]c23)nc1` [Example 59, N-(4-(3-amino-7-(5-(2-methoxyethoxy)pyridin-2-yl)-1H-pyrazolo[4,3-c]pyridin-4-yl)benzyl)-5-fluoro-2-methoxybenzamide] are 5 to 50 nM, 50 to 500 nM and 5 to 50 nM.
The corresponding values for `COc1ccc(F)cc1C(=O)NCc1ccc(-c2ncc(-c3ccc(OCCN(C)C)cn3)c3[nH]nc(N)c23)cc1` [Example 60, N-(4-(3-amino-7-(5-(2-(dimethylamino)ethoxy)pyridin-2-yl)-1H-pyrazolo[4,3-c]pyridin-4-yl)benzyl)-5-fluoro-2-methoxybenzamide] are 5 to 50 nM, 50 to 500 nM and 5 to 50 nM.
Regarding `COc1ccc(F)cc1C(=O)NCc1ccc(-c2ncc(-c3ccc(OCCN4CCOCC4)cn3)c3[nH]nc(N)c23)cc1` [Example 61, N-(4-(3-amino-7-(5-(2-morpholinoethoxy)pyridin-2-yl)-1H-pyrazolo[4,3-c]pyridin-4-yl)benzyl)-5-fluoro-2-methoxybenzamide], the half-maximal inhibitory concentration (IC50) in test [1] was 5 to 50 nM; in test [2], 50 to 500 nM; in test [3], 5 to 50 nM.
Consider `COc1ccc(F)cc1C(=O)NCc1ccc(-c2ncc(-c3ccc(OCCN4CCCC4)cn3)c3[nH]nc(N)c23)cc1` [Example 62, N-(4-(3-amino-7-(5-(2-(pyrrolidin-1-yl)ethoxy)pyridin-2-yl)-1H-pyrazolo[4,3-c]pyridin-4-yl)benzyl)-5-fluoro-2-methoxybenzamide], for which the half-inhibitory concentration (IC50) in test [1] was 5 to 50 nM; in test [2] it was 50 to 500 nM; in test [3], 50 to 500 nM.
`COc1ccc(F)cc1C(=O)NCc1ccc(-c2ncc(-c3ccc(C(C)(C)O)cn3)c3[nH]nc(N)c23)cc1` [Example 65, N-(4-(3-amino-7-(5-(2-hydroxypropan-2-yl)pyridin-2-yl)-1H-pyrazolo[4,3-c]pyridin-4-yl)benzyl)-5-fluoro-2-methoxybenzamide]: the IC50 in test [1] lay within 5 to 50 nM; in test [2], 50 to 500 nM; in test [3], 1 to 5 nM.
The corresponding values for `COc1ccc(F)cc1C(=O)NCc1ccc(-c2ncc(-c3ccc(CN4CCCCC4)cn3)c3[nH]nc(N)c23)cc1` [Example 66, N-(4-(3-amino-7-(5-(piperidin-1-ylmethyl)pyridin-2-yl)-1H-pyrazolo[4,3-c]pyridin-4-yl)benzyl)-5-fluoro-2-methoxybenzamide] are 5 to 50 nM, 50 to 500 nM and 5 to 50 nM.
Consider `COc1ccc(F)cc1C(=O)NCc1ccc(-c2ncc(-c3ccc(CN4CCOCC4)cn3)c3[nH]nc(N)c23)cc1` [Example 67, N-(4-(3-amino-7-(5-(morpholinomethyl)pyridin-2-yl)-1H-pyrazolo[4,3-c]pyridin-4-yl)benzyl)-5-fluoro-2-methoxybenzamide], for which the IC50 in test [1] was 5 to 50 nM; in test [2] it was 50 to 500 nM; in test [3], 5 to 50 nM.
In the case of `COc1ccc(F)cc1C(=O)NCc1ccc(-c2ncc(-c3ccc(CN4CCN(C)CC4)cn3)c3[nH]nc(N)c23)cc1` [Example 68, N-(4-(3-amino-7-(5-((4-methylpiperazin-1-yl)methyl)pyridin-2-yl)-1H-pyrazolo[4,3-c]pyridin-4-yl)benzyl)-5-fluoro-2-methoxybenzamide], the IC50 in test [1] is 5 to 50 nM; in test [2], 50 to 500 nM; in test [3] it was 5 to 50 nM.
With `COc1ccc(F)cc1C(=O)NCc1ccc(-c2ncc(-c3cc4ccccn4n3)c3[nH]nc(N)c23)cc1` [Example 69, N-(4-(3-amino-7-(pyrazolo[1,5-a]pyridin-2-yl)-1H-pyrazolo[4,3-c]pyridin-4-yl)benzyl)-5-fluoro-2-methoxybenzamide], the results for the IC50 in test [1], in test [2] and in test [3] were 5 to 50 nM, 50 to 500 nM and 1 to 5 nM, respectively.
The corresponding values for `COc1ccc(F)cc1C(=O)NCc1ccc(-c2ncc(-c3cnn4cccnc34)c3[nH]nc(N)c23)cc1` [Example 70, N-(4-(3-amino-7-(pyrazolo[1,5-a]pyrimidin-3-yl)-1H-pyrazolo[4,3-c]pyridin-4-yl)benzyl)-5-fluoro-2-methoxybenzamide] are 50 to 500 nM, more than 500 nM and 5 to 50 nM.
